According to patent US20240246942A1, “KINASE INHIBITORS FOR THE TREATMENT OF NEURODEGENERATIVE DISEASES” (priority 2020, published 2024):

Assays:
Experiment in all cases: biochemical
[1] = target: T1, panel of 374 wild-type kinases (Homo sapiens, UniProt P36888); settings: read-out: % Enzyme Activity (relative to DMSO controls), FLT3
T1 construct: purchased Reaction Biology Corporation
T1 sequence (P36888 27-993): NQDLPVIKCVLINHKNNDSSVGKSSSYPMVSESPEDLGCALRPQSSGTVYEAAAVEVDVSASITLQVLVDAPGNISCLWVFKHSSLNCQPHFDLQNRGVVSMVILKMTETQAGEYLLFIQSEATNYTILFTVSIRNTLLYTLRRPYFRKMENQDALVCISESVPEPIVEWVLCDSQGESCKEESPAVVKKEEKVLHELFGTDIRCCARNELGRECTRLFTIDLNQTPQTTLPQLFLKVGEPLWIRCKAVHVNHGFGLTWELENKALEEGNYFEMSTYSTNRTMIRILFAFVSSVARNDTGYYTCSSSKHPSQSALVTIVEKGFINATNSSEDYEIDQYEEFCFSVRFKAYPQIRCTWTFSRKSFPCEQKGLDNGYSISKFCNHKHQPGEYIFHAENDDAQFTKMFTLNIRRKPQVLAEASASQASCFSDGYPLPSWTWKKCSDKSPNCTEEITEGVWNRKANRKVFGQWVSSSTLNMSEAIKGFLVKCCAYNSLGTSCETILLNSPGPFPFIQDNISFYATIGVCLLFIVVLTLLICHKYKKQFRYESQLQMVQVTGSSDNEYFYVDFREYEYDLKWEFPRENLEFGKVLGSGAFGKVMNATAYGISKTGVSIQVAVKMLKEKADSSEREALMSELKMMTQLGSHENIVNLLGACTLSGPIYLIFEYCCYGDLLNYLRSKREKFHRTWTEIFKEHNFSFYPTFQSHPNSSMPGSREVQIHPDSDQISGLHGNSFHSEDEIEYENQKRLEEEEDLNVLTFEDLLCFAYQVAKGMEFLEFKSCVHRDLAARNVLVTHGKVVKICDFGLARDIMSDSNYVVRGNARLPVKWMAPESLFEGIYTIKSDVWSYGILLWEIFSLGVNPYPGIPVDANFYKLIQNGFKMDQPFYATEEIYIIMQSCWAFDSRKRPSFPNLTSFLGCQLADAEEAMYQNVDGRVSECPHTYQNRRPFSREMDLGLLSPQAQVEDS

[2] = target: T2, panel of 374 wild-type kinases (Homo sapiens, UniProt P29317); settings: read-out: % Enzyme Activity (relative to DMSO controls), EPHA2
T2 construct: purchased Reaction Biology Corporation
T2 sequence (P29317 24-976): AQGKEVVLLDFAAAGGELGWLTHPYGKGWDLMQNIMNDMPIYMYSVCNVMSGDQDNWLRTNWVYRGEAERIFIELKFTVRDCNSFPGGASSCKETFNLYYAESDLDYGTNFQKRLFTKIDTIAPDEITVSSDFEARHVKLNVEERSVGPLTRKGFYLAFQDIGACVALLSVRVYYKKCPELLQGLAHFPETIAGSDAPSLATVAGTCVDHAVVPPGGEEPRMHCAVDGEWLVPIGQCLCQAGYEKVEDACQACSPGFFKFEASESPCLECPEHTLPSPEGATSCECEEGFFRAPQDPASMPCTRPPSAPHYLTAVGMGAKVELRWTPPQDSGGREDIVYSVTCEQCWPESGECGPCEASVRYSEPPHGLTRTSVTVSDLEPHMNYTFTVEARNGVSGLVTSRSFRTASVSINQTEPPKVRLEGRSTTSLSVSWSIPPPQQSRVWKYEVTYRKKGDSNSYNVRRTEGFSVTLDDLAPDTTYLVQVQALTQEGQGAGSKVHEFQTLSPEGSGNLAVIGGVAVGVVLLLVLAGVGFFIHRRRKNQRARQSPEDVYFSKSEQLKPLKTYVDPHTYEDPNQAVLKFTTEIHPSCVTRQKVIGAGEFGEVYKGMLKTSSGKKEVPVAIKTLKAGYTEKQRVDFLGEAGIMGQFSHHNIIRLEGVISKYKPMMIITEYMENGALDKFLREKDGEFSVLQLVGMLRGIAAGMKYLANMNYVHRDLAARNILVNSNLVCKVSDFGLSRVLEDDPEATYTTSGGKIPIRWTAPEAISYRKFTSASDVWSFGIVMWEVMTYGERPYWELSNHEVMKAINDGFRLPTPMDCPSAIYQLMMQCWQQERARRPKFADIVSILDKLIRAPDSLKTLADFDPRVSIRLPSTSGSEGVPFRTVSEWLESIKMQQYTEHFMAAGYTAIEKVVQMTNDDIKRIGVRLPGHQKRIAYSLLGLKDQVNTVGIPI

[3] = target: T3, panel of 374 wild-type kinases (Homo sapiens, UniProt Q05397); settings: read-out: % Enzyme Activity (relative to DMSO controls), FAK/PTK2
T3 construct: purchased Reaction Biology Corporation
T3 sequence (Q05397 whole entry): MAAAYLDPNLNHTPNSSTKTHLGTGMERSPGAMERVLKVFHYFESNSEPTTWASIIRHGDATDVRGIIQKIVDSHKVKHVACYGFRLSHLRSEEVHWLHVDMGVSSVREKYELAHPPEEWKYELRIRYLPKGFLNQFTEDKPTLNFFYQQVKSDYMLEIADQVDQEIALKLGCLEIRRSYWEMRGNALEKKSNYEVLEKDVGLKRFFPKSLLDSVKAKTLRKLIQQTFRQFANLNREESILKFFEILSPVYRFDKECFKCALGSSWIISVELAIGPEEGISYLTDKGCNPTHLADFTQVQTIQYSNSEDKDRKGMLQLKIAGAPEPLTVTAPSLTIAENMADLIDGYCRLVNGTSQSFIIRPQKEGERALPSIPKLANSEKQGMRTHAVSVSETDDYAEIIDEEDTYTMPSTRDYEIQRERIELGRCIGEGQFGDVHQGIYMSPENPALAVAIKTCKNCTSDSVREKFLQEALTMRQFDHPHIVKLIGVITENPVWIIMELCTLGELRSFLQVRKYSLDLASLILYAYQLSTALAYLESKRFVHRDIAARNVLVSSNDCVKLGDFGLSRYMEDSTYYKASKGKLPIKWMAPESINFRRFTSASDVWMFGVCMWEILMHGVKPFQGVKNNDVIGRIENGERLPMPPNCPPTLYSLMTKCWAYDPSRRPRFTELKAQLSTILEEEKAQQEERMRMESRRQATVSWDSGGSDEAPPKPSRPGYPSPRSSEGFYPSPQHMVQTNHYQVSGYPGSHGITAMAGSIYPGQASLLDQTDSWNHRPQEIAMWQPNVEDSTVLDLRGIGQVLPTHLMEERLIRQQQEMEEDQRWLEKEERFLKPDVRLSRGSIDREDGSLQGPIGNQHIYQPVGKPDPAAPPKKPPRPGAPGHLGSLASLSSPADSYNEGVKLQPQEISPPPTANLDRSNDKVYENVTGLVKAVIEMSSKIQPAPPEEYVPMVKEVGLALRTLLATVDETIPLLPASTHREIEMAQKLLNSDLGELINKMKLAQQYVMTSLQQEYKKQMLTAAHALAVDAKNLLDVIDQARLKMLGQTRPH

[4] = target: T4, panel of 374 wild-type kinases (Homo sapiens, UniProt Q8TF76); settings: read-out: % Enzyme Activity (relative to DMSO controls), Haspin
T4 construct: purchased Reaction Biology Corporation
T4 sequence (Q8TF76 1-798): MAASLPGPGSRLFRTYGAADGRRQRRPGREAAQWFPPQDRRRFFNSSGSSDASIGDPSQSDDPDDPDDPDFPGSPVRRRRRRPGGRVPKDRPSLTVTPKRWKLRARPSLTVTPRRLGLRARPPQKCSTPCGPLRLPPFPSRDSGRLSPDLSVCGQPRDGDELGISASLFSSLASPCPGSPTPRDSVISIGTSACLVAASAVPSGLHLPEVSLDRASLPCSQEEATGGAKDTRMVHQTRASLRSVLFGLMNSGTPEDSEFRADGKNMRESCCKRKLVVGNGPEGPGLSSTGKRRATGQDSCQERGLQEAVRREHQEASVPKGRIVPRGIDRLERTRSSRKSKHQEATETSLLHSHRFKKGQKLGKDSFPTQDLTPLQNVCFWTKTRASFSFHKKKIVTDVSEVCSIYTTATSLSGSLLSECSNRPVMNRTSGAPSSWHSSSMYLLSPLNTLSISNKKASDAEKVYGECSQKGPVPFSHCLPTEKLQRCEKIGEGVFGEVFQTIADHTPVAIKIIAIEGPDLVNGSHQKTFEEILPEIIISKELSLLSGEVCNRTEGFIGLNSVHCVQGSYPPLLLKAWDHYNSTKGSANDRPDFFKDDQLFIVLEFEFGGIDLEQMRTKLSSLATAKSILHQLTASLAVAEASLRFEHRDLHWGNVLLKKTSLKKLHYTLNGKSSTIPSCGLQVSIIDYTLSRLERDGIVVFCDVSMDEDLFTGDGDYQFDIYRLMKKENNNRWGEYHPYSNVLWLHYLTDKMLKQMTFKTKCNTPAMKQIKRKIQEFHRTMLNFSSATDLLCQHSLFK

[5] = target: T5, panel of 374 wild-type kinases (Homo sapiens, UniProt Q8IWQ3); settings: read-out: % Enzyme Activity (relative to DMSO controls), BRSK2
T5 construct: purchased Reaction Biology Corporation
T5 sequence (Q8IWQ3 1-736): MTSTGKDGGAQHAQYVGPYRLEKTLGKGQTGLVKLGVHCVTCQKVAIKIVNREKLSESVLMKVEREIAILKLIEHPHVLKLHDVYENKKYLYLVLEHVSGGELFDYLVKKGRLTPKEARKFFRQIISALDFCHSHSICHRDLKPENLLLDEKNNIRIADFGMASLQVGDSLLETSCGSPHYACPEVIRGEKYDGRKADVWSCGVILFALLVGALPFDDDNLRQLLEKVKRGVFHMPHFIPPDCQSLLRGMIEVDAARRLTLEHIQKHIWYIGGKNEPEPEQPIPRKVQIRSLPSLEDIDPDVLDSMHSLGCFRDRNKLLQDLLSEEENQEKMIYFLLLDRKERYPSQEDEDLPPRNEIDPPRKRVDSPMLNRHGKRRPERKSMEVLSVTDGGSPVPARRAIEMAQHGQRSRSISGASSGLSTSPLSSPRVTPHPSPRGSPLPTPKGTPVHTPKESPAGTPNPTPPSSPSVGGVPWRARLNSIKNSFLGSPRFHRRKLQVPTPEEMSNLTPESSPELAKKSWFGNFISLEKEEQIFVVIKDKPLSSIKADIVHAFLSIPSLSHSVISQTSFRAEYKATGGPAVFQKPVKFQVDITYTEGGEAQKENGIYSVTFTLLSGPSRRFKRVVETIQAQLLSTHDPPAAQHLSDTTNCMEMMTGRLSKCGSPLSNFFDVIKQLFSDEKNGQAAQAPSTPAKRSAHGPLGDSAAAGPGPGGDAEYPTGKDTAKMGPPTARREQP

[6] = target: T6, panel of 374 wild-type kinases (Homo sapiens, UniProt Q02750); settings: read-out: % Enzyme Activity (relative to DMSO controls), MEK1
T6 construct: purchased Reaction Biology Corporation
T6 sequence (Q02750 whole entry): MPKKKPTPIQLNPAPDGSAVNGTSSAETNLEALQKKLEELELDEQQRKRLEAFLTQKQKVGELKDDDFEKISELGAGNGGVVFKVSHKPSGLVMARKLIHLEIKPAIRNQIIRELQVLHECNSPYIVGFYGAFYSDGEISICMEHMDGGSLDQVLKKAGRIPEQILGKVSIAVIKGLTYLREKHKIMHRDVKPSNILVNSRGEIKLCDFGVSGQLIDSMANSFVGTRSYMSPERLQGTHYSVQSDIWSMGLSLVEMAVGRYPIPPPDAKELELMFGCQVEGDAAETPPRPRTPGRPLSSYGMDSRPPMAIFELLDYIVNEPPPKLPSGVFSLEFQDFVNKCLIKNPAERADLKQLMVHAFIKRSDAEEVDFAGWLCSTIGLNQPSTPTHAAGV

## O=C(Nc1cnn(-c2csc(C(=O)NC3COC3)c2)c1)Nc1ccccc1Cl [Compound 17, 4-(4-(3-(2-chlorophenyl)ureido)-1H-pyrazol-1-yl)-N-(oxetan-3-yl)thiophene-2-carboxamide]
[1]
  remaining activity at 5 µM: 89.7%
[2]
  remaining activity at 5 µM: 101%
[3]
  remaining activity at 5 µM: 95.7%
[4]
  remaining activity at 5 µM: 112%
[5]
  remaining activity at 5 µM: 102%
[6]
  remaining activity at 5 µM: 104%

## Cc1sc(C(=O)NC2COC2)cc1-n1cc(NC(=O)Nc2c(F)cccc2Cl)cn1 [Compound 27, 4-(4-(3-(2-chloro-6-fluorophenyl)ureido)-1H-pyrazol-1-yl)-5-methyl-N-(oxetan-3-yl)thiophene-2-carboxamide]
[1]; 10 uM
  remaining activity at 10 µM: 69.1%
[2]; 10 uM
  remaining activity at 10 µM: 102%
[3]; 10 uM
  remaining activity at 10 µM: 104%
[4]; 10 uM
  remaining activity at 10 µM: 92.4%
[5]; 10 uM
  remaining activity at 10 µM: 102%
[6]; 10 uM
  remaining activity at 10 µM: 95.5%

## O=C(Nc1cnn(-c2csc(C(=O)NC3COC3)c2)c1)Nc1c(F)cccc1Cl [Compound 25, 4-(4-(3-(2-chloro-6-fluorophenyl)ureido)-1H-pyrazol-1-yl)-N-(oxetan-3-yl)thiophene-2-carboxamide]
[1]
  remaining activity at 5 µM: 99.2%
[2]
  remaining activity at 5 µM: 97.9%
[3]
  remaining activity at 5 µM: 89%
[4]
  remaining activity at 5 µM: 111%
[5]
  remaining activity at 5 µM: 100%
[6]
  remaining activity at 5 µM: 107%
